Assay results from patent publication US20250387357A1 (SpringWorks Therapeutics, Inc., priority 2024, published 2025).

Legend:
[1] = Pharmacokinetic parameters and characteristics of mirdametinib (Table A); parameters: species or system human; conditions: in vivo
UGT and CES enzymes = experiment: Metabolism, primary pathway; conditions: full wording over r33-r36: Metabolism involves glucuronidation and oxidation via UGT and CES enzymes

Compound: O=C(NOC[C@H](O)CO)c1ccc(F)c(F)c1Nc1ccc(I)cc1F (single isomer, unassigned) [mirdametinib]
- Excretion: Radioactivity in feces [1]: In feces: 27%
- Excretion: Radioactivity in urine [1]: In urine: 68%
- Excretion: Unchanged mirdametinib in urine [1]: In urine: 0.7%
- Excretion: Unchanged mirdametinib in urine and feces [1]: In urine and feces: 9%
- Metabolism primary pathway (UGT and CES enzymes): Metabolism involves
